From patent publication US20180057462A1, “Substituted 2-difluoromethyl-nicotin(thio)carboxanilide derivatives and their use as fungicides” (BAYER CROPSCIENCE AKTIENGESELLSCHAFT, priority 2015, published 2018) come the findings set out here.

The nature of this data set: LogP by HPLC on reversed phase columns (EEC directive 79/831 Annex V.A8), method [a]. The data set is classed as physicochemical. The note with it: LC-UV, acidic range, 0.1% formic acid in water and acetonitrile as eluent (linear gradient 10% to 95% acetonitrile).

`Cc1c(NC(=O)c2cccnc2C(F)F)cccc1OC(C)CCC(C)C` (centres unmarked) [Example 87]: the “LogP[a]” value is recorded as 4.26.

For the compound `Cc1c(NC(=O)c2cccnc2C(F)F)cccc1OCCc1cccc(Cl)c1` [Example 65], the “LogP[a]” value was 3.61.

`CCC(CC)Oc1cccc(NC(=O)c2cccnc2C(F)F)c1C(F)(F)F` [Example 92]: the “LogP[a]” value stood at 3.55.

For `CCC(CC)Nc1cccc(NC(=O)c2cccnc2C(F)F)c1C` [Example 106], the “LogP[a]” value is 2.86.

In the case of `Cc1c(NC(=O)c2cccnc2C(F)F)cccc1OCC=C(Cl)Cl` [Example 76], the “LogP[a]” value came out at 3.21.

For the compound `O=C(Nc1cccc(-c2ccc(F)cc2)c1Cl)c1cccnc1C(F)F` [Example 6], the “LogP[a]” value was found to be 3.12.

For the compound `Cc1c(NC(=O)c2cccnc2C(F)F)cccc1OC(C)COC(C)(C)C` (centres unmarked) [Example 24], the “LogP[a]” value amounted to 3.31.

With `Cc1c(NC(=O)c2cccnc2C(F)F)cccc1OCc1cc(Cl)ccc1Cl` [Example 43], the “LogP[a]” value is 3.85.

On to `Cc1c(NC(=O)c2cccnc2C(F)F)cccc1OC(C)C(C)C` (centres unmarked) [Example 14], for which the “LogP[a]” value worked out at 3.41.

`Cc1c(NC(=O)c2cccnc2C(F)F)cccc1OCCc1cccc(F)c1` [Example 61]: the “LogP[a]” value is 3.29.

With `O=C(Nc1cccc(OC2CCCC2)c1C(F)(F)F)c1cccnc1C(F)F` [Example 91], the “LogP[a]” value is 3.33.

For the compound `Cc1c(NC(=O)c2cccnc2C(F)F)cccc1-c1cnn(C(C)C)c1` [Example 113], the “LogP[a]” value turned out to be 2.17.

For the compound `Cc1c(NC(=O)c2cccnc2C(F)F)cccc1OCc1cccs1` [Example 71], the “LogP[a]” value is given as 2.82.

For the compound `Cc1c(NC(=O)c2cccnc2C(F)F)cccc1OCCc1ccc(Cl)cc1` [Example 66], the “LogP[a]” value stood at 3.68.

As to `Cc1c(NC(=O)c2cccnc2C(F)F)cccc1OCC(F)(F)F` [Example 119], the “LogP[a]” value is reported as 2.55.

As a reminder, the chromatographic logP is lipophilicity estimated from chromatographic retention. The low end stands for lower lipophilicity, the high end for higher lipophilicity. In turn, `Cc1c(NC(=O)c2cccnc2C(F)F)cccc1-c1cncc(C(F)(F)F)c1` [Example 110, 2-(difluoromethyl)-N-{2-methyl-3-[5-(trifluoromethyl)pyridin-3-yl]phenyl}nicotinamide] returned a chromatographic logP (reversed phase HPLC column) of 2.6.

Regarding `Cc1c(NC(=O)c2c(C(F)F)ccnc2C(F)F)cccc1OC1CCCC1` [Example 123], the “LogP[a]” value was 3.70.

As to `Cc1c(NC(=O)c2cccnc2C(F)F)cccc1OCCc1ccc(C(F)(F)F)cc1` [Example 58], the “LogP[a]” value worked out at 3.72.

For `O=C(Nc1cccc(-c2ccc(F)cc2F)c1Cl)c1cccnc1C(F)F` [Example 10], the “LogP[a]” value came out at 3.12.

Take `O=C(Nc1cccc(-c2cccc(Cl)c2)c1Cl)c1cccnc1C(F)F` [Example 8]: the “LogP[a]” value amounted to 3.49.

On to `O=C(Nc1cccc(-c2cccc(F)c2)c1Cl)c1cccnc1C(F)F` [Example 5], for which the “LogP[a]” value was found to be 3.12.

As for `Cc1c(NC(=O)c2cccnc2C(F)F)cccc1OC(C)CC(C)(C)C` (centres unmarked) [Example 84], the “LogP[a]” value is reported as 4.21.

`Cc1c(NC(=O)c2cccnc2C(F)F)cccc1OC(C)CSc1ccccc1` (centres unmarked) [Example 70]: the “LogP[a]” value is 3.65.

As for `CO/N=C\C(C)Oc1cccc(NC(=O)c2cccnc2C(F)F)c1C` (centres unmarked) [Example 28], the “LogP[a]” value is recorded as 2.49.

On to `Cc1c(NC(=O)c2cccnc2C(F)F)cccc1OC(C)Cc1cccc(Cl)c1` (centres unmarked) [Example 68], for which the “LogP[a]” value came out at 3.85.

Consider `Cc1c(NC(=O)c2cccnc2C(F)F)cccc1OC(C)c1ccccc1F` (centres unmarked) [Example 57], for which the “LogP[a]” value turned out to be 3.37.

In the case of `Cc1c(NC(=O)c2cccnc2C(F)F)cccc1C1CCCO1` (centres unmarked) [Example 82], the “LogP[a]” value is listed as 2.02.

In the case of `Cc1c(NC(=O)c2cccnc2C(F)F)cccc1-c1csc(C(C)C)n1` [Example 114], the “LogP[a]” value was 2.94.

Consider `Cc1c(NC(=O)c2cccnc2C(F)F)cccc1OC(C)c1ccc(Cl)cc1` (centres unmarked) [Example 47], for which the “LogP[a]” value was determined as 3.65.

Consider `O=C(Nc1cccc(-c2cc(F)ccc2F)c1Cl)c1cccnc1C(F)F` [Example 2], for which the “LogP[a]” value was found to be 3.11.

Regarding `Cc1c(NC(=O)c2cccnc2C(F)F)cccc1N1CCCC1` [Example 104], the “LogP[a]” value stood at 0.79.

For `Cc1c(CCC(C)(C)C)cccc1NC(=O)c1cccnc1C(F)F` [Example 74], the “LogP[a]” value was 3.92.

As to `Cc1c(NC(=O)c2cccnc2C(F)F)cccc1C1CCCC1` [Example 121], the “LogP[a]” value came out at 3.25.

With `Cc1c(NC(=O)c2cccnc2C(F)F)cccc1C1CCCCO1` (centres unmarked) [Example 80], the “LogP[a]” value was 2.53.

As for `Cc1c(NC(=O)c2cccnc2C(F)F)cccc1OC(C)Cc1cccs1` (centres unmarked) [Example 72], the “LogP[a]” value was 3.37.

As for `Cc1c(NC(=O)c2cccnc2C(F)F)cccc1OCc1ncc(C(F)(F)F)cc1Cl` [Example 17], the “LogP[a]” value amounted to 3.23.

`CC(C)Oc1cccc(NC(=O)c2cccnc2C(F)F)c1C(F)(F)F` [Example 99]: the “LogP[a]” value turned out to be 2.80.

With `Cc1c(NC(=O)c2cccnc2C(F)F)cccc1N(C)C1CCCC1` [Example 109], the “LogP[a]” value came out at 1.39.

With `Cc1c(NC(=O)c2cccnc2C(F)F)cccc1OC(C)Cc1ccc(Cl)cc1` (centres unmarked) [Example 67], the “LogP[a]” value is given as 3.90.

As for `Cc1c(NC(=O)c2cccnc2C(F)F)cccc1OC(C)(C)C(C)C` [Example 117], the “LogP[a]” value was determined as 3.61.

Regarding `Cc1c(NC(=O)c2cccnc2C(F)F)cccc1OC(C)Cc1ccccc1` (centres unmarked) [Example 88], the “LogP[a]” value worked out at 3.62.

Take `Cc1c(NC(=O)c2cccnc2C(F)F)cccc1OC(C)CC(C)C` (centres unmarked) [Example 15]: the “LogP[a]” value stood at 3.79.

Regarding `Cc1c(NC(=O)c2cccnc2C(F)F)cccc1NC1CCCC1` [Example 107], the “LogP[a]” value is recorded as 2.17.

For the compound `CCC(C)Oc1cccc(NC(=O)c2cccnc2C(F)F)c1C(F)(F)F` (centres unmarked) [Example 94], the “LogP[a]” value is reported as 3.17.
